Assay results as given in publication PMC7504466, “In-Vitro and In-Silico Evaluations of Heterocyclic-Containing Diarylpentanoids as Bcl-2 Inhibitors Against LoVo Colorectal Cancer Cells” (Molecules, 2020).

Test system: LoVo cells
Assay: Cell apoptosis analysis (Annexin V-PE/7-AAD flow cytometry)
Assay type: cell-based, human
Description: LoVo cells (1 × 10^5 cells/well) were seeded into a 6-well plate and incubated at 37 °C and 5% CO2 atmosphere overnight. The seeded cells were then treated with different concentrations of tested compounds for 24, 48 and 72 h. After treatments, cells were trypsinized and washed with PBS followed by the addition of 1× binding buffer (500 μL), Annexin V-PE (5 μL) and 7-AAD (5 μL) solutions. The resulting mixture was then incubated in the dark at 4 °C for 20 min. Upon completion, the mixture was analysed with a flow-cytometer at the PE and APC channel. The values presented are the means ± SD of three independent experiments.

O=C1C(=Cc2ccccc2Br)CSCC1=Cc1ccccc1Br [Compound 2e, 3,5-Bis(2-bromobenzylidene)tetrahydro-4H-thiopyran-4-one]
lowest in vitro effective dose against LoVo cells: 2.5 µM
cellular apoptosis (annexin V) (0.625 and 1.25 µM): minimal insignificant effects
cellular apoptosis (annexin V) (2.5 and 5 µM, 24-72 h): could induce cellular apoptosis
